{"source": "ChEMBL document CHEMBL2331186", "about": "“Five new phenolic glycosides from Hedyotis scandens” (Bioorg Med Chem Lett, 2013)", "note": "Calls of active or inactive are those of the source. The calls are words filed in the database; no cut-off is given here.", "data": [{"test_system": "Respiratory syncytial virus", "experiment": "Antiviral activity against Respiratory syncytial virus assessed as reduction of virus-induced cytopathic effect", "assay_type": "functional, organism-based", "values": [{"smiles": "Cc1occc(=O)c1O[C@@H]1O[C@H](CO[C@@H]2OC[C@](O)(CO)[C@H]2O)[C@@H](O)[C@H](O)[C@H]1O", "Activity": "Active"}, {"smiles": "OCCc1cc(O)cc(O[C@@H]2O[C@H](CO)[C@@H](O)[C@H](O)[C@H]2O)c1", "Activity": "Active"}]}, {"test_system": "Respiratory syncytial virus", "experiment": "Antiviral activity against Respiratory syncytial virus assessed as reduction of virus-induced cytopathic effect at maximal non-toxic concentration", "assay_type": "functional, organism-based", "values": [{"smiles": "Cc1occc(=O)c1O[C@@H]1O[C@H](CO[C@@H]2OC[C@](O)(COC(=O)/C=C/c3ccc(O)c(O)c3)[C@H]2O)[C@@H](O)[C@H](O)[C@H]1O", "Activity": "inactive"}, {"smiles": "COC(=O)[C@@H](Cc1ccc(O)c(O)c1)OC(=O)/C=C/c1ccc(OC)c(O)c1", "Activity": "inactive"}, {"smiles": "N#C[C@H](O[C@@H]1O[C@H](CO[C@@H]2OC[C@](O)(COC(=O)/C=C/c3ccc(O)cc3)[C@H]2O)[C@@H](O)[C@H](O)[C@H]1O)c1ccccc1", "Activity": "inactive"}, {"smiles": "Cc1occc(=O)c1O[C@@H]1O[C@H](CO[C@@H]2OC[C@](O)(COC(=O)/C=C/c3ccc(O)cc3)[C@H]2O)[C@@H](O)[C@H](O)[C@H]1O", "Activity": "inactive"}, {"smiles": "O=C(/C=C/c1ccc(O)c(O[C@@H]2O[C@H](CO)[C@@H](O)[C@H](O)[C@H]2O)c1)O/C=C\\c1ccc(O)c(O)c1", "Activity": "inactive"}, {"smiles": "CCCCOC(=O)[C@@H](Cc1ccc(O)c(O)c1)OC(=O)/C=C/c1ccc(O)c(O[C@@H]2O[C@H](CO)[C@@H](O)[C@H](O)[C@H]2O)c1", "Activity": "inactive"}, {"smiles": "COC(=O)[C@@H](Cc1ccc(O)c(O)c1)OC(=O)/C=C/c1ccc(O)c(O)c1", "Activity": "inactive"}, {"smiles": "COc1cc(O[C@@H]2O[C@H](CO[C@@H]3OC[C@](O)(COC(=O)/C=C/c4ccc(O)cc4)[C@H]3O)[C@@H](O)[C@H](O)[C@H]2O)cc(OC)c1OC", "Activity": "inactive"}, {"smiles": "O=C(O)/C=C/c1ccc(O)c(O)c1", "Activity": "inactive"}, {"smiles": "O=C(/C=C/c1ccc(O)c(O)c1)O/C=C\\c1ccc(O)c(O)c1", "Activity": "inactive"}, {"smiles": "COC(=O)[C@@H](Cc1ccc(O)c(O)c1)OC(=O)/C=C/c1ccc(O)c(O[C@@H]2O[C@H](CO)[C@@H](O)[C@H](O)[C@H]2O)c1", "Activity": "inactive"}, {"smiles": "CCCCOC(=O)[C@@H](Cc1ccc(O)c(O)c1)OC(=O)/C=C/c1ccc(O)c(O)c1", "Activity": "inactive"}, {"smiles": "O=C(/C=C/c1ccc(O)c(O)c1)O[C@H](Cc1ccc(O)c(O)c1)C(=O)O", "Activity": "inactive"}]}]}
